Laboratory results taken from ChEMBL document CHEMBL2151005, “Discovery of 1H-pyrrolo[2,3-c]pyridine-7-carboxamides as novel, allosteric mGluR5 antagonists” (Bioorg Med Chem Lett, 2012).

Columns and labels:
physchem [1] = conditions: octanol/water
physchem [2] = experiment: physchem

SMILES | logP (physchem [1]) | pKa (physchem [2])
Cc1cccc(NC(=O)c2nc(C)cc3cc[nH]c23)n1 | 5.3 | 4.5
Cc1csc(NC(=O)c2nc(C)cc3cc[nH]c23)n1 | 3.9 | 5.6
Cc1cc2cc[nH]c2c(C(=O)Nc2ccn(C)n2)n1 | 2.9 | 4.1
Cc1c[nH]c(NC(=O)c2nc(C)cc3cc[nH]c23)n1 | 3.1 | 7.6
Cc1c[nH]c(NC(=O)c2nc(C)cc3c(-c4ccccn4)c[nH]c23)n1 | 3.3 | 6.9

Second part, the compound after the results:

logP (physchem [1]) | pKa (physchem [2]) | SMILES
4.2 | 3.5 | Cc1cc2cc[nH]c2c(C(=O)Nc2ccccn2)n1
4.7 | 4.5 | Cc1cccc(NC(=O)c2nc(C)cc3c(-c4ccccn4)c[nH]c23)n1
3.7 | 4.6 | Cc1cc2c(-c3ccccn3)c[nH]c2c(C(=O)Nc2ccn(C)n2)n1
